What was measured:
[1] = Clearance in Sprague-Dawley rat at 0.5 mg/kg, iv; format: ADME, organism-based; settings: in vivo
[2] = target: T1, 5'-nucleotidase (Mus musculus, UniProt Q61503); assay: Inhibition of CD73 in mouse CD8-positive T cells using AMP as substrate preincubated for 60 mins followed by substrate addition and measured after 2.5 hrs by PiColorLock gold reagent based colorimetric assay; format: cell-based, CD8-positive T cell
T1 sequence (Q61503 whole entry): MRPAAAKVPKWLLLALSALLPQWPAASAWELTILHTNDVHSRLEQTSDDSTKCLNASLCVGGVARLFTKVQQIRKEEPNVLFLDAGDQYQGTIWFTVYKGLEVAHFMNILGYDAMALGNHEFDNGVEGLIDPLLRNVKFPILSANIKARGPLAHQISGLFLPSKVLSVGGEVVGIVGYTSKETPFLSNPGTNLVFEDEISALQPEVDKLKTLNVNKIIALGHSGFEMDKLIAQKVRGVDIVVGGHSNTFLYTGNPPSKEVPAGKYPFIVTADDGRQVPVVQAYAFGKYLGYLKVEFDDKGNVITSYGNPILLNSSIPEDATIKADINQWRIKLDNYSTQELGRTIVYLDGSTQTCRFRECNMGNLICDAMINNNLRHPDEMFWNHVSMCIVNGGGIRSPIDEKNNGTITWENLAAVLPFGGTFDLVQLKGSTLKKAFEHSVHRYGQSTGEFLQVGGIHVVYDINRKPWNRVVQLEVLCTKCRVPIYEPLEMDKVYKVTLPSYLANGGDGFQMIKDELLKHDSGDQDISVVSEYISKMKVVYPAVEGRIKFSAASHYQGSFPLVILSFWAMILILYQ

[3] = target: T2, Ectonucleoside triphosphate diphosphohydrolase 2 (Homo sapiens, UniProt Q9Y5L3); assay: Inhibition of NTPDase 2 (unknown origin) expressed in CHO cells using ATP as substrate preincubated for 1 hr followed by substrate addition and measured after 50 mins by PiColorLock gold reagent based colorimetric assay; format: cell-based
T2 sequence (Q9Y5L3 whole entry): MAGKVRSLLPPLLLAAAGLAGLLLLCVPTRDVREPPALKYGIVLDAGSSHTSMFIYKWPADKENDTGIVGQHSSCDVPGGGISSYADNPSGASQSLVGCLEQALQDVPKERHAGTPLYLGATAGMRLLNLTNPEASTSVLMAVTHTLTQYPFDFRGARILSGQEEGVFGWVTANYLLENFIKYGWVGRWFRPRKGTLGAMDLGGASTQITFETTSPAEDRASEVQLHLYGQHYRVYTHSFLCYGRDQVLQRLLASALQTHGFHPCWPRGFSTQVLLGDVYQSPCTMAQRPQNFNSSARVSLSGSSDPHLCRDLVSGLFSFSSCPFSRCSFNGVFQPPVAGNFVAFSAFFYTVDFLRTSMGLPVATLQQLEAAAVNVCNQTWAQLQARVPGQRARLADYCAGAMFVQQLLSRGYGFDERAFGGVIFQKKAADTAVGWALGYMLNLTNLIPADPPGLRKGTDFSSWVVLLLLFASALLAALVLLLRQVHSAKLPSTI

[4] = target: T3, Ectonucleoside triphosphate diphosphohydrolase 3 (Homo sapiens, UniProt O75355); assay: Inhibition of NTPDase 3 (unknown origin) expressed in CHO cells using ATP as substrate preincubated for 1 hr followed by substrate addition and measured after 50 mins by PiColorLock gold reagent based colorimetric assay; format: cell-based
T3 sequence (O75355 whole entry): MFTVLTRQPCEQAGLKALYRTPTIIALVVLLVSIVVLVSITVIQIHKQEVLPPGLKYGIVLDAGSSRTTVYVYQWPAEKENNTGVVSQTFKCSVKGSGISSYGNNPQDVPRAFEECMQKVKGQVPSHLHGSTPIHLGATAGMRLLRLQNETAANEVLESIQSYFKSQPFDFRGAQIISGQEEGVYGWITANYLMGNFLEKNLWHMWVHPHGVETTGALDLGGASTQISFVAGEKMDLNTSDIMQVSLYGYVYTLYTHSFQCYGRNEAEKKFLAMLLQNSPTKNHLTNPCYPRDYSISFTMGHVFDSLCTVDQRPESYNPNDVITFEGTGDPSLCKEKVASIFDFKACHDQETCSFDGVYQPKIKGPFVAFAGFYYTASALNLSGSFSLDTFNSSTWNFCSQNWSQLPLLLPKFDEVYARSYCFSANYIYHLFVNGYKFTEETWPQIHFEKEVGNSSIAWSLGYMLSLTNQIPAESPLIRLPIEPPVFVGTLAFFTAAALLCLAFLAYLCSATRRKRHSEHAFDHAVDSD

[5] = target: T4, Ectonucleoside triphosphate diphosphohydrolase 8 (Homo sapiens, UniProt Q5MY95); assay: Inhibition of NTPDase 8 (unknown origin) expressed in CHO cells using ATP as substrate preincubated for 1 hr followed by substrate addition and measured after 50 mins by PiColorLock gold reagent based colorimetric assay; format: cell-based
T4 sequence (Q5MY95 whole entry): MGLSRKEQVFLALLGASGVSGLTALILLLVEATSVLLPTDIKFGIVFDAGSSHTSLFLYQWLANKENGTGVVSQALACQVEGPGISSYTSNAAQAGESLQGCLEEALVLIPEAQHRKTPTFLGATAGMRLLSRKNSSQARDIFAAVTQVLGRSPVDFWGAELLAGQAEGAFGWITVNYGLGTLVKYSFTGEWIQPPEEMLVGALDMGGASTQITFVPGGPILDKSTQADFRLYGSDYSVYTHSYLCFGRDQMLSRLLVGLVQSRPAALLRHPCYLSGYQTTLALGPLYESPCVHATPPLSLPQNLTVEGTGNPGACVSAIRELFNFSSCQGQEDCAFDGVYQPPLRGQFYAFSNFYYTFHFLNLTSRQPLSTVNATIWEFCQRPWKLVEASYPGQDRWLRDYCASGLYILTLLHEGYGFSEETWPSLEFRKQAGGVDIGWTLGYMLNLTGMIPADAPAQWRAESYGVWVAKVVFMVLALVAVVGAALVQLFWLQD

[6] = Clearance in mouse at 0.5 mg/kg, iv; format: ADME, organism-based; settings: in vivo
[7] = Volume of distribution at steady state in mouse at 0.5 mg/kg, iv; format: ADME, organism-based; settings: in vivo, read-out: Vdss
[8] = Half life in mouse at 0.5 mg/kg, iv; format: ADME, organism-based; settings: in vivo
[9] = Half life in Sprague-Dawley rat at 0.5 mg/kg, iv; format: ADME, organism-based; settings: in vivo
[10] = Clearance in dog at 0.5 mg/kg, iv; format: ADME, organism-based, Canis lupus familiaris; settings: in vivo
[11] = Half life in dog at 0.5 mg/kg, iv; format: ADME, organism-based, Canis lupus familiaris; settings: in vivo
[12] = Fraction unbound in dog plasma; format: ADME, cell-free, Canis lupus familiaris
[13] = Clearance in monkey at 0.5 mg/kg, iv; format: ADME, organism-based, Macaca mulatta; settings: rhesus monkey, in vivo
[14] = Volume of distribution at steady state in monkey at 0.5 mg/kg, iv; format: ADME, organism-based, Macaca mulatta; settings: rhesus monkey, in vivo, read-out: Vdss
[15] = Half life in monkey at 0.5 mg/kg, iv; format: ADME, organism-based, Macaca mulatta; settings: rhesus monkey, in vivo

Structure (SMILES) | clearance [1] [mL/min/kg] | IC50 [2] [µM] | IC50 [3] [µM] | IC50 [4] [µM] | IC50 [5] [µM] | clearance [6] [mL/min/kg] | Vd [7] [L/kg] | half-life [8] [h] | half-life [9] [h] | clearance [10] [mL/min/kg] | half-life [11] [h] | fraction unbound [12] | clearance [13] [mL/min/kg] | Vd [14] [L/kg] | half-life [15] [h]
C[C@H](Nc1cc(Cl)nc2c1cnn2[C@@H]1O[C@H](COP(=O)(O)CP(=O)(O)O)[C@@H](O)[C@H]1O)c1ccccc1F | 0.333 | 0.00066 | > 10 | > 10 | > 10 | 0.417 | 0.12 | 3.5 | 5.3 | 0.833 | 22 | 0.083 | 0.0417 | 0.099 | 27
C[C@H](Nc1cc(Cl)nc2c1cnn2[C@@H]1O[C@H](COP(=O)(O)CP(=O)(O)O)[C@@H](O)[C@H]1O)c1ccc(F)cc1 | 0.15 | 0.00083 | > 10 | > 10 | > 10 | 0.25 | 0.11 | 6.5 | 9.6 | 0.567 | 15 | 0.102 | 0.0283 | 0.078 | 34
C[C@H](Nc1nc(Cl)nc2c1cnn2[C@@H]1O[C@H](COP(=O)(O)CP(=O)(O)O)[C@@H](O)[C@H]1O)c1ccccc1 | 1.07 | 0.00016 | > 10 | > 10 | > 10 | 1.27 | 0.18 | 2 | 1.7 | 1.18 | 13 | 0.187 | 0.04 | 0.096 | 28
